Legend:
[1] = target: T1, human orexin-1 receptor (Homo sapiens, UniProt O43613); assay: Intracellular calcium measurements (FLIPR), orexin receptor antagonistic activity, OX1; type: cell-based; details: CHO cells expressing human orexin-1 receptor, 10 nM orexin-A as agonist
T1 construct: expressed in transfected cells; host or cells: CHO (Chinese hamster ovary) cells, grown under G418 selection
T1 sequence (O43613 1-425): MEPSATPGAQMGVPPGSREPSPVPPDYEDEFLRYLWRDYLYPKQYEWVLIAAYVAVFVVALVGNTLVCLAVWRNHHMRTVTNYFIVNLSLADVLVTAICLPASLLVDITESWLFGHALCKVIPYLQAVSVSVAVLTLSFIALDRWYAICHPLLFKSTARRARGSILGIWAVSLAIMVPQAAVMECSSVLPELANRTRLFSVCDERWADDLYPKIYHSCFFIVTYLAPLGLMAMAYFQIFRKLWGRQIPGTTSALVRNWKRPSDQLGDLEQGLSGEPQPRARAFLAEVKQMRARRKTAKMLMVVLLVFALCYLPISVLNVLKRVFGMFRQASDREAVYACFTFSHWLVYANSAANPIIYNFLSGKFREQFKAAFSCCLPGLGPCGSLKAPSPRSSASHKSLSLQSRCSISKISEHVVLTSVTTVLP
Protocol: (§1) The orexin receptor antagonistic activity of the compounds of formula (I) is determined in accordance with the following experimental method.
(§2) Intracellular Calcium Measurements:
(§3) Chinese hamster ovary (CHO) cells expressing the human orexin-1 receptor and the human orexin-2 receptor, respectively, are grown in culture medium (Ham F-12 with L-Glutamine) containing 300 μg/ml G418, 100 U/ml penicillin, 100 μg/ml streptomycin and 10% inactivated fetal calf serum (FCS). The cells are seeded at 80,000 cells/well into 96-well black clear bottom sterile plates (Costar) which have been precoated with 1% gelatine in Hanks' Balanced Salt Solution (HBSS). All reagents are from Gibco BRL. The seeded plates are incubated overnight at 37° C. in 5% CO2.
(§4) Human orexin-A as an agonist is prepared as 1 mM stock solution in MeOH: water (1:1), diluted in HBSS containing 0.1% bovine serum albumin (BSA) and 2 mM HEPES for use in the assay at a final concentration of 10 nM.
(§5) Antagonists are prepared as 10 mM stock solution in DMSO, then diluted in 96-well plates, first in DMSO, then in HBSS containing 0.1% bovine serum albumin (BSA) and 2 mM HEPES.
(§6) On the day of the assay, 100 μl of loading medium (HBSS containing 1% FCS, 2 mM HEPES, 5 mM probenecid (Sigma) and 3 μM of the fluorescent calcium indicator fluo-3 AM (1 mM stock solution in DMSO with 10% pluronic acid) (Molecular Probes) is added to each well.
(§7) The 96-well plates are incubated for 60 min at 37° C. in 5% CO2. The loading solution is then aspirated and cells are washed 3 times with 200 μl HBSS containing 2.5 mM probenecid, 0.1% BSA, 2 mM HEPES. 100 μl of that same buffer is left in each well.
(§8) Within the Fluorescent Imaging Plate Reader (FLIPR, Molecular Devices), antagonists are added to the plate in a volume of 50 μl, incubated for 20 min and finally 100 μl of agonist is added. Fluorescence is measured for each well at 1 second intervals, and the height of each fluorescence peak is compared to the height of the fluorescence peak induced by 10 nM orexin-A with buffer in place of antagonist.

[2] = target: T2, human orexin-2 receptor (Homo sapiens, UniProt O43614); assay: Intracellular calcium measurements (FLIPR), orexin receptor antagonistic activity, OX2; type: cell-based; details: CHO cells expressing human orexin-2 receptor, 10 nM orexin-A as agonist
T2 construct: expressed in transfected cells; host or cells: CHO (Chinese hamster ovary) cells, grown under G418 selection
T2 sequence (O43614 1-444): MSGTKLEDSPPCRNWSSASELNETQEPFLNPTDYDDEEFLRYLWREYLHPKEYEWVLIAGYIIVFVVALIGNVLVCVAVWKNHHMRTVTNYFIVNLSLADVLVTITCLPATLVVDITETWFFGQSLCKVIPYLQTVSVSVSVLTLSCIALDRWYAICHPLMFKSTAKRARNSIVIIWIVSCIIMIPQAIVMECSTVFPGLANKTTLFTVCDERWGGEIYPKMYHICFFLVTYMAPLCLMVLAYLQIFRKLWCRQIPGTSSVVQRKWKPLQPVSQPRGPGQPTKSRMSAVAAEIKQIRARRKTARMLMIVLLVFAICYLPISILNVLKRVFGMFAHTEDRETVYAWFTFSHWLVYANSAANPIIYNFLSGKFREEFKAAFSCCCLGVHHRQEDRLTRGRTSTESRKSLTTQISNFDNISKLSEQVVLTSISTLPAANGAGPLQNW
Protocol: as §1, §2, §3, §4, §5, §6, §7, §8

Row | Compound | IC50 [1] [nM] | IC50 [2] [nM]
1 | Cc1cccc(-c2sc(C)nc2C(=O)N2C[C@H]3C[C@H]3[C@H]2CNC(=O)c2cccc3c2C=CCO3)c1 (relative stereo) [Example 178, 2H-Chromene-5-carboxylic acid [(1R*,2S*,5S*)-3-(2-methyl-5-m-tolyl-thiazole-4-carbonyl)-3-aza-bicyclo[3.1.0]hex-2-ylmethyl]-amide] | 43 | 33
2 | COCCOc1cccc(-c2sc(C)nc2C(=O)N2C[C@H]3C[C@H]3[C@H]2CNC(=O)c2cccc3occc23)c1 (relative stereo) [Example 333, Benzofuran-4-carboxylic acid ((1R*,2S*,5S*)-3-{5-[3-(2-methoxy-ethoxy)-phenyl]-2-methyl-thiazole-4-carbonyl}-3-aza-bicyclo[3.1.0]hex-2-ylmethyl)-amide] | 954 | 172
3 | Cc1csc(-c2c(C)cccc2C(=O)N2C[C@H]3C[C@H]3[C@H]2CNC(=O)c2cccc3c2OCCO3)c1 [Compound 376] | 194 | 158
4 | CCc1ccc(-c2sc(C)nc2C(=O)N2C[C@H]3C[C@H]3[C@H]2CNC(=O)c2cccc3occc23)cc1 (relative stereo) [Example 16, benzofuran-4-carboxylic acid {(1R*,2S*,5S*)-3-[5-(4-ethyl-phenyl}2-methyl-thiazole-4-carbonyl]-3-aza-bicyclo[3.1.0]hex-2-ylmethyl}-amide] | 143 | 33
5 | Cc1ccc(C(=O)N2C[C@H]3C[C@H]3[C@H]2CNC(=O)c2cccc3c2OCCO3)c(C#CC2CC2)c1 (racemic) [Example 379, 2,3-Dihydro-benzo[1,4]dioxine-5-carboxylic acid [(1R*,2S*,5S*)-3-(2-cyclopropylethynyl-4-methyl-benzoyl)-3-aza-bicyclo[3.1.0]hex-2-ylmethyl]-amide] | 373 | 61
6 | Cc1ccc(C(=O)N2C[C@H]3C[C@H]3[C@H]2CNC(=O)c2cccc3c2OCC3)c(-c2cccc(F)c2)c1 [Compound 325] | 346 | 40
7 | Cc1cccc(-c2sc(C)nc2C(=O)N2C[C@H]3C[C@H]3[C@H]2CNC(=O)c2cn(C)c3ccccc23)c1 (relative stereo) [Example 114, 1-Methyl-1H-indole-3-carboxylic acid [(1R*,2S*,5S*)-3-(2-methyl-5-m-tolyl-thiazole-4-carbonyl)-3-aza-bicyclo[3.1.0]hex-2-ylmethyl]-amide] | 93 | 124
8 | Cc1nc(C(=O)N2C[C@H]3C[C@H]3[C@H]2CNc2cnc3cc(F)c(F)cc3n2)c(-c2ccc(F)cc2)s1 (relative stereo) [Example 60, {(1R*,2S*,5S*)-2-[(6,7-difluoro-quinoxalin-2-ylamino)-methyl]-3-aza-bicyclo[3.1.0]hex-3-yl}-[5-(4-fluoro-phenyl)-2-methyl-thiazol-4-yl]-methanone] | 596 | 76
9 | Cc1cccc(-c2sc(C)nc2C(=O)N2C[C@H]3C[C@H]3[C@H]2CNC(=O)c2sc(Br)nc2C)c1 (relative stereo) [Example 74, 2-bromo-4-methyl-thiazole-5-carboxylic acid [(1R*,2S*,5S*)-3-(2-methyl-5-m-tolyl-thiazole-4-carbonyl)-3-aza-bicyclo[3.1.0]hex-2-ylmethyl]-amide] | 99 | 16
10 | Cc1nc(C(=O)N2C[C@H]3C[C@H]3[C@H]2CNC(=O)c2cccc3c2OCO3)c(-c2cccc(F)c2)s1 (relative stereo) [Example 242, Benzo[1,3]dioxole-4-carboxylic acid {(1R*,2S*,5S*)-3-[5-(3-fluoro-phenyl)-2-methyl-thiazole-4-carbonyl]-3-aza-bicyclo[3.1.0]hex-2-ylmethyl}-amide] | 963 | 59
11 | COc1ccc(-c2ocnc2C(=O)N2C[C@H]3C[C@H]3[C@H]2CNC(=O)c2cccc3occc23)cc1 (relative stereo) [Example 33, benzofuran-4-carboxylic acid {(1R*,2S*,5S*)-3-[5-(4-methoxy-phenyl)-oxazole-4-carbonyl]-3-aza-bicyclo[3.1.0]hex-2-ylmethyl}-amide] | 2170 | 94
12 | Cc1nc(C(=O)N2C[C@H]3C[C@H]3[C@H]2CNC(=O)c2ccc(F)cc2)c(-c2cccc(F)c2)s1 (relative stereo) [Example 8, 4-fluoro-N-{[(1R*,2S*,5S*)-3-[5-(3-fluoro-phenyl)-2-methyl-thiazole-4-carbonyl]-3-aza-bicyclo[3.1.0]hex-2-ylmethyl}-benzamide] | 994 | 96
13 | Cc1nc2sccn2c1C(=O)NC[C@@H]1[C@@H]2C[C@@H]2CN1S(=O)(=O)c1ccccc1OC(F)(F)F (relative stereo) [Example 3, 6-methyl-imidazo[2,1-b]thiazole-5-carboxylic acid [(1R*,2S*,5S*)-3-(2-trifluoromethoxy-benzenesulfonyl)-3-aza-bicyclo[3.1.0]hex-2-ylmethyl]-amide] | 158 | 348
14 | Cc1nc(C(=O)N2C[C@H]3C[C@H]3[C@H]2CNC(=O)c2cccc3c2OCCO3)c(-c2cccc(C#N)c2)s1 (relative stereo) [Example 336, 2,3-Dihydro-benzo[1,4]dioxine-5-carboxylic acid {(1R*,2S*,5S*)-3-[5-(3-cyano-phenyl)-2-methyl-thiazole-4-carbonyl]-3-aza-bicyclo[3.1.0]hex-2-ylmethyl}-amide] | 141 | 48
15 | O=C(NC[C@@H]1[C@@H]2C[C@@H]2CN1C(=O)c1nccnc1-c1ccccc1)c1cccc2occc12 (relative stereo) [Example 32, benzofuran-4-carboxylic acid [(1R*,2S*,5S*)-3-(3-phenyl-pyrazine-2-carbonyl)-3-aza-bicyclo[3.1.0]hex-2-ylmethyl]-amide] | 2960 | 91
16 | Cc1cccc(-c2sc(C)nc2C(=O)N2C[C@H]3C[C@H]3[C@H]2CNC(=O)c2cccc3c2OC(C)(C)C3)c1 (relative stereo) [Example 108, 2,2-Dimethyl-2,3-dihydro-benzofuran-7-carboxylic acid [(1R*,2S*,5S*)-3-(2-methyl-5-m-tolyl-thiazole-4-carbonyl)-3-aza-bicyclo[3.1.0]hex-2-ylmethyl]-amide] | 131 | 101
17 | Cc1ccc(C(=O)N2C[C@H]3C[C@H]3[C@H]2CNC(=O)c2cccc3c2OCCO3)c(-c2ccc3c(c2)OCCO3)c1 [Compound 350] | 110 | 194
18 | Cc1cccc(-c2sc(C)nc2C(=O)N2C[C@H]3C[C@H]3[C@H]2CNC(=O)c2ccccc2N2CCOCC2)c1 (relative stereo) [Example 154, N-[(1R*,2S*,5S*)-3-(2-Methyl-5-m-tolyl-thiazole-4-carbonyl)-3-aza-bicyclo[3.1.0]hex-2-ylmethyl]-2-morpholin-4-yl-benzamide] | 201 | 237
19 | Cc1cccc(-c2sc(N)nc2C(=O)N2C[C@H]3C[C@H]3[C@H]2CNC(=O)c2scc3c2OCCO3)c1 (relative stereo) [Example 284, 2,3-Dihydro-thieno[3,4-b][1,4]dioxine-5-carboxylic acid [(1R*,2S*,5S*)-3-(2-amino-5-m-tolyl-thiazole-4-carbonyl)-3-aza-bicyclo[3.1.0]hex-2-ylmethyl]-amide] | 33 | 15

From patent US20100016401A1, “3-AZA-BICYCLO[3.1.0]HEXANE DERIVATIVES” (Actelion Phamaceuticals Ltd., priority 2006, published 2010)
